Target: chymotrypsin (Bos taurus, UniProt P00766)
Assay: chymotrypsin inhibition assay
Format: biochemical
Settings: protease inhibition test; statement of the abstract

streptopeptolin [compound 1]
inhibitory activity against chymotrypsin (in words): showed inhibitory activity
